Where a SMILES comes first, the peptide text is derived from it. Bridges are numbered along the chain shown (N, C = ends).
Experiments:
mice = assay: murine gastrointestinal transit (GIT) assay, acute dosing; assay type: in vivo, mouse
Method: In order to determine whether the peptides increase the rate of gastrointestinal transit, the peptides and controls were tested using a murine gastrointestinal transit (GIT) assay (Moon et al. Infection and Immunity 25:127, 1979). In this assay, charcoal, which can be readily visualized in the gastrointestinal tract is administered to mice after the administration of a test compound. The distance traveled by the charcoal is measured and expressed as a percentage of the total length of the […].
Mice were fasted with free access to water for 12 to 16 hours before the treatment with peptide or control buffer. The peptides were orally administered at 1 μg/kg-1 mg/kg of peptide in buffer (20 mM Tris pH 7.5) 7 minutes before being given an oral dose of 5% Activated Carbon (Aldrich 242276-250G). Control mice were administered buffer only before being given a dose of Activated Carbon. After 15 minutes, the mice were sacrificed and their intestines from the stomach to the cecum were dissected. The total length of the intestine as well as the distance traveled from the stomach to the charcoal front was measured for each animal and the results are expressed as the percent of the total length of the intestine traveled by the charcoal front. All results are reported as the average of 10 mice±standard deviation. A comparison of the distance traveled by the charcoal between the mice treated with peptide versus the mice treated with vehicle alone was performed using a Student's t test and a statistically significant difference was considered for P<0.05. P-values are calculated using a two-sided T-Test assuming unequal variances.

carboxypeptidase A = target: T1, carboxypeptidase A (Homo sapiens, UniProt P15085); assay: in vitro proteolytic stability, carboxypeptidase A
T1 sequence (P15085 111-419): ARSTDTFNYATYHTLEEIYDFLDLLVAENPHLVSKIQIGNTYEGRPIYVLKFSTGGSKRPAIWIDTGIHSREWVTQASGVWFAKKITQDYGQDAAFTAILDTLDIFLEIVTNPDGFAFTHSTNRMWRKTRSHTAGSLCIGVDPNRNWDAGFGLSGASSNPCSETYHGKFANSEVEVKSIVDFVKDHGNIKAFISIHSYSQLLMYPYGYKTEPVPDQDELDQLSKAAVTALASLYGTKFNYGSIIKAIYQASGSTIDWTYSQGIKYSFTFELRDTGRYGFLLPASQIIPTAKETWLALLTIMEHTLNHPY
Method: The stability of SEQ ID NO:3 in the presence of several mammalian digestive enzymes was determined. SEQ ID NO:3 was exposed to a variety of in vitro conditions including digestive enzymes and low ph environments designed to simulate gastric fluid. SEQ ID NO:3 was incubated with chymotrypsin, trypsin, pepsin, aminopeptidase, carboxypeptidase A, and simulated gastric fluid (sgf) at ph 1.0. Samples were collected at 0, 3, and 24 h for all conditions except pepsin digestion and the SGF. For the latter two conditions, samples were obtained at 0, 1, and 3 h. Negative control samples were prepared for initial and final time points. A separate, positive activity control was run in parallel to SEQ ID NO:3. All samples were analyzed by LC/MS
Five (5) μL of a 40 μg/mL carboxypeptidase inhibitor (carboxypeptidase inhibitor from potato tuber (Sigma-Aldrich, C0279) stock was added to each control sample (0 and 24 h), for a final concentration of 0.4 μg/mL. All control and test (0, 3 and 24 h) samples were incubated at 37° C. for 5 min. Twenty (20) μL of a 0.01 mg/mL carboxypeptidase A (Carboxypeptidase A from human pancreas; Sigma-Aldrich, C5358) stock was added to each sample. The samples were returned to the 37° C. water bath. The reaction was quenched with 5 μL of a 40 μg/mL carboxypeptidase inhibitor at the proper time point. No extra carboxypeptidase inhibitor was added to the control samples since there was already inhibitor present. Samples were subsequently flash frozen in liquid nitrogen, and stored at −80° C. until analysis. Upon analysis, samples were thawed and transferred to a 1 mL 96-well deep microtiter plate. […] These standards were used to generate a standard curve for quantification of samples. When necessary, the standard curves were also used to calculate the concentration of the corresponding digestion product. Ten (10) μL injections were made of each sample and standard.
To further study the SEQ ID NO:3 carboxypeptidase A digestion product, samples of 0.01 mg/mL SEQ ID NO:3 were prepared in the carboxypeptidase A reaction buffer at a total volume of 500 μL in 2 mL eppendorf tubes. Triplicate samples were prepared for the following time points: 0, 15, 30, 60, 120, 180 and 240 min. The samples were incubated at 37° C. for 5 min. Twenty (20) μL of a 0.01 mg/mL carboxypeptidase A stock were added to each sample and returned to the 37° C. water bath. The reactions were quenched with 5 μL of a 40 μg/mL carboxypeptidase inhibitor at the proper time points. Samples were subsequently flash frozen in liquid nitrogen, and stored at −80° C. until analysis. Upon analysis, samples were thawed and transferred to a 1 mL 96-well plate. Standards of SEQ ID NO:3 were prepared in carboxypeptidase A reaction buffer at 0.625, 1.25, 2.50, 5.00, and 10.00 μg/mL concentrations. These standards were used to generate a standard curve for quantification of samples. When necessary, the standard curves were also used to calculate the concentration of the corresponding digestion product. Ten (10) μL injections were made of each sample and standard. If the formation of a digestion product was evident, then a spectral analysis was used to determine the mass of the digestion product, and predict its possible identity.

CD1 female mice = assay: murine gastrointestinal transit assay, chronic dosing; assay type: in vivo, mouse; conditions: oral, daily for 5 days; SEQ ID NO:3 0.06 or 0.25 mg/kg; FIG. 4c
Method: The identical experiment was performed to determine if SEQ ID NO:3 is effective in a chronic dosing treatment regimen. Briefly, 8 week old CD1 female mice are dosed orally once a day for 5 days with either SEQ ID NO:3 (0.06 mg/kg or 0.25 mg/kg in 20 mM Tris pH 7.5) or vehicle alone (20 mM Tris pH 7.5). On the 5th day, a GIT assay is performed identical to that above except 200 μl of a 10% charcoal solution is administered. […] The results are shown side by side with acute dosing (1 day).

C[C@@H]1NC(=O)[C@@H]2CCCN2C(=O)[C@H](CC(N)=O)NC(=O)[C@@H]2CSSC[C@H](N)C(=O)N[C@H]3CSSC[C@H](NC1=O)C(=O)N[C@@H]([C@@H](C)O)C(=O)NCC(=O)N[C@H](C(=O)N[C@@H](Cc1ccc(O)cc1)C(=O)O)CSSC[C@H](NC(=O)[C@H](Cc1ccc(O)cc1)NC(=O)[C@H](CCC(=O)O)NC3=O)C(=O)N2 [SEQ ID NO:3] (H-CCEYCCNPACTGCY-OH; disulfide 1-6, 2-10, 5-13; N-terminus and C-terminus assumed)
intestinal transit rates versus Tris buffer and Zelnorm (mice; chemically synthesized peptides, FIG. 4b): increase intestinal transit rates more than either Tris buffer alone or an equivalent dose of Zelnorm® | gastrointestinal transit rate (mice; oral, SEQ ID NO:4 0.1 mg/kg, Zelnorm 0.1 mg/kg, FIG. 3a, 3b): increase gastrointestinal transit rate | proteolysis by carboxypeptidase A (carboxypeptidase A; 37° C., FIG. 13a, 13b): some proteolysis | Cleavage of SEQ ID NO: 3 by proteolytic substance (carboxypeptidase A; Carboxypetidase A, 37° C., up to 24 h): Yes | average calculated product concentrations (carboxypeptidase A; T3 h samples): 1.3 (+/−0.06) μg/mL | average calculated product concentrations (carboxypeptidase A; T24 h samples): 1.3 (+/−0.04) μg/mL | calculated concentrations of parent (carboxypeptidase A; all samples): 8.4 (+/−1.2) μg/mL | average concentration (carboxypeptidase A; carboxypeptidase A digestion of SEQ ID NO:3, T0): 5115 (+/−121) nM | average concentration (carboxypeptidase A; carboxypeptidase A digestion of SEQ ID NO:3, T240 (240 min)): 4438 (+/−188) nM | calculated concentrations for the products (carboxypeptidase A; time 0 control (with inhibitor)): 0.8 (+/−0.02) μg/mL | calculated concentrations for the products (carboxypeptidase A; time 0 samples): 0.8 (+/−0.01) μg/mL | gastrointestinal motility upon chronic dosing (CD1 female mice): effective

Reference: patent US20090305993A1, “METHODS AND COMPOSITION FOR THE TREATMENT OF GASTROINTESTINAL DISORDERS” (IRONWOOD PHARMACEUTICALS, INC., priority 2006, published 2009)
